The target of experiment [1] is T1, NLRP3 (Homo sapiens, UniProt Q96P20). The experiment in a line: THP-1 cells pyroptosis assay (LPS + nigericin, resazurin read-out). The arrangement: Seed THP-1 cells (25,000 cells/well) containing 1.0 μg/ml LPS; host or cells: THP-1 cells, LPS-primed, nigericin-stimulated. The experiment is classed as cell-based. The settings on record: 1 μg/ml LPS, 5 μM nigericin, NLRP3 inhibitory activity. As for the experimental part:
THP-1 cells (ATCC #TIB-202) were grown in RPMI containing L-glutamine (Gibco #11835) supplemented with 1 mM sodium pyruvate (Sigma #S8636) and penicillin (100 units/ml)/streptomycin (0.1 mg/ml) (Sigma #P4333) in 10% Fetal Bovine Serum (FBS) (Sigma #F0804). The cells were routinely passaged and grown to confluency (˜10^6 cells/ml). On the day of the experiment, THP-1 cells were harvested and resuspended into RPMI medium (without FBS). The cells were then counted and viability (>90%) checked by Trypan blue (Sigma #T8154). Appropriate dilutions were made to give a concentration of 625,000 cells/ml. To this diluted cell solution was added LPS (Sigma #L4524) to give a 1 μg/ml Final Assay Concentration (FAC). 40 μl of the final preparation was aliquoted into each well of a 96-well plate. The plate thus prepared was used for compound screening.
The following method step-by-step assay was followed for compound screening. • 1. Seed THP-1 cells (25,000 cells/well) containing 1.0 μg/ml LPS in 40 μl of RPMI medium (without FBS) in 96-well, black walled, clear bottom cell culture plates coated with poly-D-lysine (VWR #734-0317) • 2. Add 5 μl compound (8 points half-log dilution, with 10 μM top dose) or vehicle (DMSO 0.1% FAC) to the appropriate wells • 3. Incubate for 3 hrs at 37° C. and 5% CO2 • 4. Add 5 μl nigericin (Sigma #N7143) (FAC 5 μM) to all wells • 5. Incubate for 1 hr at 37° C. and 5% CO2 • 6. At the end of the incubation period, spin plates at 300×g for 3 mins and remove supernatant • 7. Then add 50 μl of resazurin (Sigma #R7017) (FAC […] resazurin in RPMI medium without FBS) and incubate plates for a further 1-1.5 h at 37° C. and 5% CO2 • 8. Plates were read in an Envision reader at Ex 560 nm and Em 590 nm • 9. IC50 data is fitted to a non-linear regression equation (log inhibitor vs response-variable slope 4-parameters) 96-Well Plate Map
For orientation: Alamar Blue is a resazurin reagent that responds to reducing activity.

Experiment [2] addresses T1, NLRP3. The experiment in a line: Human whole blood IL1β release assay (LPS + nigericin, AlphaLisa IL-1β). In kind it is cell-based. Also noted: Plate out 80 μl of whole blood containing 1 μg/ml of LPS; from tissue; host or cells: human whole blood from healthy donors (Li-heparin), LPS-primed, nigericin-stimulated. Conditions: 1 μg/ml LPS, 10 μM nigericin, IL-1β release, read-out: HWB IC50. The method, then:
For systemic delivery, the ability to inhibit NLRP3 when the compounds are present within the bloodstream is of great importance. For this reason, the NLRP3 inhibitory activity of a number of compounds in human whole blood was investigated in accordance with the following protocol.
Human whole blood in Li-heparin tubes was obtained from healthy donors from a volunteer donor panel. • 1. Plate out 80 μl of whole blood containing 1 μg/ml of LPS in 96-well, clear bottom cell culture plate (Corning #3585) • 2. Add 10 μl compound (8 points half-log dilution with 10 μM top dose) or vehicle (DMSO 0.1% FAC) to the appropriate wells • 3. Incubate for 3 hrs at 37° C., 5% CO2 • 4. Add 10 μl nigericin (Sigma #N7143) (10 μM FAC) to all wells • 5. Incubate for 1 hr at 37° C., 5% CO2 • 6. At the end of the incubation period, spin plates at 300×g for 5 mins to pellet cells and remove 20 μl of supernatant and add to 96-well v-bottom plates for IL-1β analysis (note: these plates containing the supernatants can be stored at −80° C. to be analysed at a later date) • 7. IL-1β was measured according to the manufacturer protocol (Perkin Elmer-AlphaLisa IL-1 Kit AL220F-5000) • 8. IC50 data is fitted to a non-linear regression equation (log inhibitor vs response-variable slope 4-parameters)
For orientation: Bead proximity is the source of the signal in Alpha formats.

Experimental findings from US12221434B2, “Sulfonamide carboxamide compounds” (Inflazome Limited, priority 2017, dated 2025) are described below.

T1 sequence (Q96P20 whole entry): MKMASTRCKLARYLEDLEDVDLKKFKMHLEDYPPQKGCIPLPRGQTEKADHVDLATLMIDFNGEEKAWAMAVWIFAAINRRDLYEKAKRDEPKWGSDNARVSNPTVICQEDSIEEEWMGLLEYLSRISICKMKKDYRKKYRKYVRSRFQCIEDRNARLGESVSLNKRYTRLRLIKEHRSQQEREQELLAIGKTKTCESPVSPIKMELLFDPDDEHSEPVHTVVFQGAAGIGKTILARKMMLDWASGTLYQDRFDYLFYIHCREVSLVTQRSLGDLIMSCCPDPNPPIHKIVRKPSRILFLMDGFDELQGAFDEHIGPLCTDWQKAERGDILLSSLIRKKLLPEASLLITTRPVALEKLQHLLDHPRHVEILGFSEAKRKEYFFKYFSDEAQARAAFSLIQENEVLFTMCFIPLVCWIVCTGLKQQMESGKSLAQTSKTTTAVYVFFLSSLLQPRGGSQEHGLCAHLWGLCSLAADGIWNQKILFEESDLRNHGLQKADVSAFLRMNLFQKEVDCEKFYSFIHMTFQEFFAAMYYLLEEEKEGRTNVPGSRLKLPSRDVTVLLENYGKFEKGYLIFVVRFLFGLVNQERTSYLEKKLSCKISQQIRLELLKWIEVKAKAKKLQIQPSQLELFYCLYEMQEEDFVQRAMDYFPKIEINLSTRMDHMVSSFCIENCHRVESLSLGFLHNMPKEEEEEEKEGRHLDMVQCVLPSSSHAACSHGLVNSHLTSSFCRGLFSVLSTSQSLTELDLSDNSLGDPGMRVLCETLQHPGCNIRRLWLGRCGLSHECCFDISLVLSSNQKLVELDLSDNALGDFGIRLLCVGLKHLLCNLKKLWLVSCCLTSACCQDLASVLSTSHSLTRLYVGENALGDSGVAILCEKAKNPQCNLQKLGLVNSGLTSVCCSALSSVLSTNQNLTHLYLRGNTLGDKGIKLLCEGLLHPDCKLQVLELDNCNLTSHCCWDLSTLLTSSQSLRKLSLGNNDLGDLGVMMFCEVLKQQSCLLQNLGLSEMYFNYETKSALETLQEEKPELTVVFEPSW

On to `CN(C(=O)c1cc(S(=O)(=O)NC(=O)Nc2c3c(cc4c2CCC4)CCC3)nn1C)c1nccs1` [Example 9, 3-(N-((1,2,3,5,6,7-Hexahydro-s-indacen-4-yl)carbamoyl)sulfamoyl)-N,1-dimethyl-N-(thiazol-2-yl)-1H-pyrazole-5-carboxamide], for which the IC50 at NLRP3 [1] fell in the range of 160 to 640 nM.

On to `O=C(Nc1c2c(cc3c1CCC3)CCC2)NS(=O)(=O)c1ccn(-c2cccnc2)n1` [Example 6, N-((1,2,3,5,6,7-Hexahydro-s-indacen-4-yl)carbamoyl)-1-(pyridin-3-yl)-1H-pyrazole-3-sulfonamide], for which, on NLRP3 [1], the IC50 was 640 to 2560 nM.

On to `O=C(Nc1c2c(cc3c1CCC3)CCC2)NS(=O)(=O)c1ccn(-c2ccccn2)n1` [Example 4, N-((1,2,3,5,6,7-Hexahydro-s-indacen-4-yl)carbamoyl)-1-(pyridin-2-yl)-1H-pyrazole-3-sulfonamide], for which the IC50 on NLRP3 [1] fell in the range of 640 to 2560 nM.

Regarding `O=C(Nc1c2c(cc3c1CCC3)CCC2)NS(=O)(=O)c1ccn(Cc2ncccn2)n1` [Example 1, N-((1,2,3,5,6,7-Hexahydro-s-indacen-4-yl)carbamoyl)-1-(pyrimidin-2-ylmethyl)-1H-pyrazole-3-sulfonamide], the IC50 on NLRP3 [1] was 640 to 2560 nM.

Consider `Cn1ccnc1Cn1ccc(S(=O)(=O)NC(=O)Nc2c3c(cc4c2CCC4)CCC3)n1` [Example 3, N-((1,2,3,5,6,7-Hexahydro-s-indacen-4-yl)carbamoyl)-1-((1-methyl-1H-imidazol-2-yl)methyl)-H-pyrazole-3-sulfonamide], for which, at NLRP3 [2], the half-inhibitory concentration (IC50) is 400 to 800 nM.

For the compound `CN(Cc1ccnn1C)C(=O)c1cc(S(=O)(=O)NC(=O)Nc2c3c(cc4c2CCC4)CCC3)nn1C` [Example 10, 3-(N-((1,2,3,5,6,7-Hexahydro-s-indacen-4-yl)carbamoyl)sulfamoyl)-N,1-dimethyl-N-((1-methyl-1H-pyrazol-5-yl)methyl)-1H-pyrazole-5-carboxamide], at NLRP3 [1], the concentration for half-maximal inhibition (IC50) fell in the range of 640 to 2560 nM.

`O=C(Nc1c2c(cc3c1CCC3)CCC2)NS(=O)(=O)c1ccn(-c2nccs2)n1` [Example 5, N-((1,2,3,5,6,7-Hexahydro-s-indacen-4-yl)carbamoyl)-1-(thiazol-2-yl)-1H-pyrazole-3-sulfonamide]: at NLRP3 [1], the IC50 is 640 to 2560 nM.

Consider `CN(Cc1nccs1)C(=O)c1cc(S(=O)(=O)NC(=O)Nc2c3c(cc4c2CCC4)CCC3)nn1C` [Example 7, 3-(N-((1,2,3,5,6,7-Hexahydro-s-indacen-4-yl)carbamoyl)sulfamoyl)-N,1-dimethyl-N-(thiazol-2-ylmethyl)-1H-pyrazole-5-carboxamide], for which the half-inhibitory concentration (IC50) fell in the range of 160 to 640 nM on NLRP3 [1] and 1600 to 3200 nM on NLRP3 [2].

As for `CN(Cc1nccn1C)C(=O)c1cc(S(=O)(=O)NC(=O)Nc2c3c(cc4c2CCC4)CCC3)nn1C` [Example 8, 3-(N-((1,2,3,5,6,7-Hexahydro-s-indacen-4-yl)carbamoyl)sulfamoyl)-N,1-dimethyl-N-((1-methyl-1H-imidazol-2-yl)methyl)-1H-pyrazole-5-carboxamide], the IC50 is 40 to 160 nM at NLRP3 [1] and 800 to 1600 nM at NLRP3 [2].

Turning to `O=C(Nc1c2c(cc3c1CCC3)CCC2)NS(=O)(=O)c1ccn(Cc2ncco2)n1` [Example 2, N-((1,2,3,5,6,7-Hexahydro-s-indacen-4-yl)carbamoyl)-1-(oxazol-2-ylmethyl)-1H-pyrazole-3-sulfonamide], the half-maximal inhibitory concentration (IC50) on NLRP3 [1] lay within 40 to 160 nM; at NLRP3 [2], 3200 to 10000 nM.

The term IC50 denotes the concentration that gives 50% inhibition.
